For series [1], the system named is Male Wistar rats. In words: Novel object recognition. It is filed as in vivo. The conditions noted are these: 10 and 30 mg/kg oral gavage 90 minutes prior to training; p<0.05. The method, then:
The novel object recognition paradigm is based on the greater spontaneous exploration of a novel object, compared with a familiar object, shown by rodents (Ennaceur and Delacour, 1988). […] Male Wistar rats were assessed for cognitive ability in a test apparatus comprising an open-field arena placed in a sound-attenuated room under dimmed lighting. Images of the open-field were captured by digital camera, and viewed on a monitor in an adjoining room. Each rat was subjected to the procedure separately and care taken to remove any olfactory/taste cues by cleaning the arena and test objects with alcohol between trials and rats. All tests are video scored blind to treatment. Following a 10-minute habituation period, each rat was placed into the test arena in the presence of two identical objects (plastic shapes). Each rat was placed facing the same direction at the same position in the arena, and the time spent actively exploring the objects during a 5-minute training period (T1) was recorded. The rat is returned to its home cage between tests. After 24 hours, each rat was again placed in the test arena for 5 minutes (T2) in the presence of one of the familiar objects and a novel object, and the time spent exploring both objects again recorded. The presentation order and position of the objects (left/right) was randomized between rats to prevent bias from order or place preference. Doses of 3, 10 or 30 mg/kg of test compound were administered by oral gavage 90 minutes prior to training (n=8). Donepezil (0.1 mg/kg) and galanthamine (3 mg/kg) were administered via intraperitoneal injection 60 minutes prior to training. Vehicle-treated controls were employed for comparison.

The target in series [2] is T1, human muscarinic M1 receptor (Homo sapiens, UniProt P11229).
T1 sequence (P11229 1-460): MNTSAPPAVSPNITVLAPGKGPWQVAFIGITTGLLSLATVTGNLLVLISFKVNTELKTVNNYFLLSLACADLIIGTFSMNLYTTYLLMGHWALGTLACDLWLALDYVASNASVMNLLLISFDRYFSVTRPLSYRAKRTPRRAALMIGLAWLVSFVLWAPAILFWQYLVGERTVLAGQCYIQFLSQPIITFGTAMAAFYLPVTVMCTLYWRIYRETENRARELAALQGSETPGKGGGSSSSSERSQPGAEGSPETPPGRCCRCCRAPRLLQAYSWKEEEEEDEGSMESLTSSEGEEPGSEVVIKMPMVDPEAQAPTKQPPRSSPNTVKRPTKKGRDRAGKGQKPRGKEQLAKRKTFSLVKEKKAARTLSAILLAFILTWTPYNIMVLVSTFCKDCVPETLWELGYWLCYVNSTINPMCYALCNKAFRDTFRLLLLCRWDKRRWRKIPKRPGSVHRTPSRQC
Nature of the series: Phospho-ERK1/2 assay, muscarinic M1. Type of series: cell-based. The conditions noted are these: for Emax: CHO, read-out: % Emax cf. ACh (M1). Put shortly: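 Steps: plate CHO cells stably expressing the receptor in MEM-alpha with 10% dialysed FBS; starve overnight; add agonist for 5 min at 37 °C; lyse for 15 min; incubate the lysate with SureFire detection reagents for 2 h; read. The outputs are pEC50 and Emax.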

For series [3], the system named is Rats. Nature of the series: Irwin profile. Type of series: in vivo. The procedure:
The method, which detects the principal effects of a test substance on behaviour and physiological function, follows that described by Irwin (1968) Psychopharmacologia. Cholinergic side effects are potentially visible in the behavioural readout of the Irwin assay, and an absence of these side effects can be taken as an indication that agonism of the M2 and M3 receptors is not significant in vivo.
Rats are administered the test substance or its vehicle, and are observed in simultaneous comparison with a control group. Behavioural modifications, physiological and neurotoxicity symptoms, rectal temperature and pupil diameter are recorded according to a standardized observation grid derived from that of Irwin. The grid contains the following items: death, convulsions, tremor, Straub tail, altered activity, jumping, abnormal gait (rolling, tiptoe), motor incoordination, altered abdominal muscle tone, loss of grasping, akinesia, catalepsy, loss of traction, loss of balance, fore-paw treading, writhing, piloerection, stereotypies (sniffing, chewing, head movements), head-twitches, scratching, altered respiration, aggression, altered fear/startle, altered reactivity to touch, ptosis, exophthalmia, loss of righting reflex, loss of corneal reflex, analgesia, defecation/diarrhea, salivation, lacrimation, rectal temperature (hypothermia/hyperthermia) and pupil diameter (myosis/mydriasis). […]

Turning to `CCOC(=O)N1CCC[C@H](N2CCC(C(=O)NC3(C)CCC3)CC2)CC1` [Example 65, ethyl (4S)-4-{4-[(1-methylcyclobutyl)carbamoyl]piperidin-1-yl)azepane-1-carbondate], the “novel object recognition memory vs vehicle-treated controls” value in series [1] is “significantly improved novel object recognition memory”. In series [2], the EC50 was 31.6 nM and the Emax stood at 104%. Moreover, the “Irwin observation grid, effects on any parameter vs vehicle” value in series [3] (5, 10, 20 and 40 mg/kg, 15, 30, 60, 120 and 180 minutes) is listed as “No significant effects on any parameter were observed”.
In the case of `CCOC(=O)N1CCCC(N2CCC(C(=O)NC3(C)CCC3)CC2)CC1` (stereo not shown) [Example 27, ethyl 4-(4-((1-methylcyclobutyl)carbamoyl)piperidin-1-yl)azepane-1-carboxylate], in series [2], the EC50 was 45.7 nM and the Emax was determined as 117%. For the same compound, the “Irwin observation grid, effects on any parameter vs vehicle” value in series [3] (3, 10, 30 and 75 mg/kg po, 15, 30, 60, 120, 180 minutes and 24 hours) is on record as “No effects on any parameter were observed at any time point”.

The EC50 is the concentration giving half of the maximal effect. High values mean a less potent agent, low ones a more potent agent. The term Emax denotes the size of the effect at its maximum, as opposed to the concentration needed.
